Measured values as given in ChEMBL document CHEMBL1201862, “PubChem BioAssay data set” (2004).
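Results reflect a 48-hour exposure of cells in 96-well plates to compound at five concentrations. At the GI50, growth is halved.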 Activity calls are given as the source filed them. Cut-off read from the data, not from the text of the source: active = GI50 up to about 1.1 µM and inactive = higher.

Tests used:
Test in all cases: NCI tumour cell line growth inhibition, 48 h
[1] = test system: 786-0
[2] = test system: A549
[3] = test system: HCC 2998
[4] = test system: HCT-15
[5] = test system: HL-60
[6] = test system: HOP-62
[7] = test system: HOP-92
[8] = test system: IGROV-1
[9] = test system: KM12
[10] = test system: LOX IMVI
[11] = test system: M14
[12] = test system: Malme-3M
[13] = test system: NCI-H23
[14] = test system: NCI-H522
[15] = test system: OVCAR-8
[16] = test system: RXF 393
[17] = test system: SF-539
[18] = test system: SN12C
[19] = test system: UACC-62
[20] = test system: MDA-MB-435

SMILES	GI50 [1]	GI50 [2]	GI50 [3]	GI50 [4] [µM]	GI50 [5]	GI50 [6]	GI50 [7]	GI50 [8]	GI50 [9]	GI50 [10]	GI50 [11]	GI50 [12]	GI50 [13]	GI50 [14]	GI50 [15]	GI50 [16]	GI50 [17]	GI50 [18]	GI50 [19]	GI50 [20]
C=CC1(C)CC(=O)C2(O)C(C)(O1)C(OC(C)=O)C(O)C1C(C)(C)CCC(O)C12C (centres undefined)	> 100 µM (inactive)	> 150 µM (inactive)	> 146 µM (inactive)	> 150	42.1 µM (inactive)	59.7 µM (inactive)	> 150 µM (inactive)	47.3 µM (inactive)	0.863 µM (active)	60.8 µM (inactive)	> 100 µM (inactive)	> 150 µM (inactive)	115 µM (inactive)	132 µM (inactive)	> 76.4 µM (inactive)	7.62 µM (inactive)	33.1 µM (inactive)	30.6 µM (inactive)	69.7 µM (inactive)	
O=[N+]([O-])c1c(/C=N/Nc2ccccc2)oc(-c2ccc3c(c2)OCO3)c1-c1ccc2c(c1)OCO2	19.2 µM (inactive)	11 µM (inactive)	5.71 µM (inactive)		4.57 µM (inactive)	3.9 µM (inactive)	19.8 µM (inactive)	6.14 µM (inactive)		0.74 µM (active)	3 µM (inactive)	16.4 µM (inactive)	51.2 µM (inactive)	27 µM (inactive)	5.56 µM (inactive)	36.5 µM (inactive)	3.16 µM (inactive)	64.3 µM (inactive)	3.19 µM (inactive)	
Cc1ccc(C(=O)N/N=C(\N=N\c2ccccc2)c2ccc(N(C)C)cc2)cc1	68.2 µM (inactive)	> 100 µM (inactive)	90.8 µM (inactive)	> 100	> 100 µM (inactive)		> 100 µM (inactive)	> 100 µM (inactive)	71.1 µM (inactive)	> 100 µM (inactive)	> 100 µM (inactive)		> 100 µM (inactive)	65.8 µM (inactive)	> 100 µM (inactive)		> 100 µM (inactive)	> 100 µM (inactive)	67.8 µM (inactive)	24 µM (inactive)
NC1=C(NC(=O)Cc2ccc(F)cc2)C(=O)c2ccccc2C1=O	37.7 µM (inactive)	85.3 µM (inactive)	> 100 µM (inactive)	> 100	35.1 µM (inactive)	> 52.4 µM (inactive)	23.8 µM (inactive)	23.4 µM (inactive)	> 76.9 µM (inactive)	14.4 µM (inactive)	43.8 µM (inactive)	49.5 µM (inactive)	12.2 µM (inactive)	22.7 µM (inactive)	33.1 µM (inactive)	24.6 µM (inactive)	> 78 µM (inactive)	> 100 µM (inactive)	36.4 µM (inactive)	
N=C(N)C1CN(CC=O)C(=O)NC1=O (centres undefined)	> 100 µM (inactive)	> 100 µM (inactive)	> 100 µM (inactive)	> 100	> 100 µM (inactive)	> 100 µM (inactive)	> 100 µM (inactive)	> 100 µM (inactive)		> 100 µM (inactive)	> 100 µM (inactive)	> 100 µM (inactive)	> 100 µM (inactive)		> 100 µM (inactive)			> 100 µM (inactive)	> 100 µM (inactive)	> 100 µM (inactive)
O=C(O)c1ccc(C2=Cc3cc(Cl)ccc3OC2)cc1	> 100 µM (inactive)	> 100 µM (inactive)	> 100 µM (inactive)	> 100	> 100 µM (inactive)	> 100 µM (inactive)	> 100 µM (inactive)	> 100 µM (inactive)	> 100 µM (inactive)	> 100 µM (inactive)	> 100 µM (inactive)	> 100 µM (inactive)	> 100 µM (inactive)	> 100 µM (inactive)	> 100 µM (inactive)	> 100 µM (inactive)	> 100 µM (inactive)	> 100 µM (inactive)	> 100 µM (inactive)	
CN(C)CCOc1cccc2c1C(=O)c1ccccc1C2=O	17.6 µM (inactive)	13.7 µM (inactive)	13.9 µM (inactive)	12.2	12.1 µM (inactive)	13.6 µM (inactive)	11.8 µM (inactive)	16.5 µM (inactive)	10.8 µM (inactive)	5.75 µM (inactive)	13.5 µM (inactive)	13.6 µM (inactive)	11.8 µM (inactive)	6.52 µM (inactive)	9.48 µM (inactive)	13.8 µM (inactive)	10.4 µM (inactive)	9.06 µM (inactive)	16.3 µM (inactive)	
CC(C)(C)c1cc(C(=O)O)c2c(c1)C(=O)OC2(c1ccccc1)c1ccccc1C(=O)O (centres undefined)	> 100 µM (inactive)	> 100 µM (inactive)	0.467 µM (active)	> 100	> 100 µM (inactive)	> 100 µM (inactive)	> 100 µM (inactive)		> 100 µM (inactive)	> 100 µM (inactive)	> 100 µM (inactive)	> 100 µM (inactive)	> 100 µM (inactive)	0.206 µM (active)	> 100 µM (inactive)	> 100 µM (inactive)	> 100 µM (inactive)	> 100 µM (inactive)	> 100 µM (inactive)	
COC(=O)C1=C(C(=O)NNc2ccccc2)N(c2cccnc2Cl)C(c2ccccc2)=CC1c1ccccc1 (centres undefined)	86.3 µM (inactive)	40.9 µM (inactive)	60.3 µM (inactive)	39.3	37.2 µM (inactive)	> 100 µM (inactive)		> 100 µM (inactive)	29.6 µM (inactive)	30.5 µM (inactive)	33.3 µM (inactive)	27.8 µM (inactive)	73.8 µM (inactive)	> 100 µM (inactive)	> 100 µM (inactive)		72.4 µM (inactive)	> 100 µM (inactive)	57.7 µM (inactive)	29.5 µM (inactive)
O=C(OCC1CO1)c1cccs1 (centres undefined)	> 100 µM (inactive)	> 100 µM (inactive)	> 100 µM (inactive)	> 100	> 100 µM (inactive)	> 100 µM (inactive)	65.6 µM (inactive)	> 100 µM (inactive)	> 100 µM (inactive)	> 100 µM (inactive)	> 100 µM (inactive)	> 100 µM (inactive)	> 100 µM (inactive)	17 µM (inactive)	> 100 µM (inactive)	> 100 µM (inactive)		> 100 µM (inactive)	> 100 µM (inactive)	
CSc1ccc(C2OC(=O)c3ccccc32)c2ccccc12 (centres undefined)	> 100 µM (inactive)	81.3 µM (inactive)	70.8 µM (inactive)	97.7	61.2 µM (inactive)	> 100 µM (inactive)	49 µM (inactive)	98.9 µM (inactive)	78 µM (inactive)	88.3 µM (inactive)	> 100 µM (inactive)	> 100 µM (inactive)		51.8 µM (inactive)	> 100 µM (inactive)	> 100 µM (inactive)	> 100 µM (inactive)	> 100 µM (inactive)	54.3 µM (inactive)	
CCOC(=O)C1Cc2ccc(C)cc2C1=O (centres undefined)	> 100 µM (inactive)	> 100 µM (inactive)	> 100 µM (inactive)	61.4	23.6 µM (inactive)	> 100 µM (inactive)	> 100 µM (inactive)	70.6 µM (inactive)	> 100 µM (inactive)	62.5 µM (inactive)	> 100 µM (inactive)	70 µM (inactive)	55.6 µM (inactive)		> 100 µM (inactive)		> 100 µM (inactive)	82.6 µM (inactive)	49.1 µM (inactive)	54.5 µM (inactive)
CNC(=S)NNC(=O)c1c(C)nc2sccn12	> 100 µM (inactive)	> 100 µM (inactive)	> 100 µM (inactive)	> 100	> 100 µM (inactive)	> 100 µM (inactive)	> 100 µM (inactive)	> 100 µM (inactive)	> 100 µM (inactive)	> 100 µM (inactive)		> 100 µM (inactive)	> 100 µM (inactive)	> 100 µM (inactive)	> 100 µM (inactive)	> 100 µM (inactive)	> 100 µM (inactive)	> 100 µM (inactive)	> 100 µM (inactive)	
Cc1ccccc1-c1c(N)nc(N)nc1C(=O)Nc1nccs1	> 100 µM (inactive)	> 100 µM (inactive)	> 100 µM (inactive)	> 100	> 100 µM (inactive)	> 100 µM (inactive)	> 100 µM (inactive)	> 100 µM (inactive)	> 100 µM (inactive)	> 100 µM (inactive)	> 100 µM (inactive)	> 100 µM (inactive)	> 100 µM (inactive)	> 100 µM (inactive)	> 100 µM (inactive)	> 100 µM (inactive)	> 100 µM (inactive)	> 100 µM (inactive)	> 100 µM (inactive)	
CN1C(=O)CC2CCC(=O)N2c2cccnc21 (centres undefined)	> 100 µM (inactive)	> 100 µM (inactive)	> 100 µM (inactive)	> 100	> 100 µM (inactive)	> 100 µM (inactive)		> 100 µM (inactive)	> 100 µM (inactive)	> 100 µM (inactive)	> 100 µM (inactive)	> 100 µM (inactive)	> 100 µM (inactive)	> 100 µM (inactive)	> 100 µM (inactive)		> 100 µM (inactive)	> 100 µM (inactive)	75.5 µM (inactive)	> 100 µM (inactive)
CC12CCC(CC1)C(C)(C)O2 [EUCALYPTOL]	> 100 µM (inactive)		26.4 µM (inactive)	12.1	17.1 µM (inactive)	12.6 µM (inactive)	24.3 µM (inactive)	30.4 µM (inactive)	33.9 µM (inactive)	7.43 µM (inactive)	> 100 µM (inactive)	54.6 µM (inactive)	16.9 µM (inactive)	10.1 µM (inactive)	24.4 µM (inactive)	13.6 µM (inactive)	18.3 µM (inactive)	7.08 µM (inactive)	10 µM (inactive)	
